Measurements: patent US8048825B2, “Haloalkylsulfonanilide derivatives or salt thereof, herbicide comprising the derivatives as active ingredient, and use of the herbicide” (Nihon Nohyaku Co., Ltd., priority 2006, dated 2011)

How the values were obtained:
Type in all cases: in vivo
[1] = system: Echinochloa crus-galli; assay: Herbicidal effect on paddy field weeds of post-emergence stage (Post), Test Example 2; details: one-leaf stage, 1000 g/ha as active ingredient, examined after 21 days
Outline: (§1)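 Post-emergence paddy test: formulated compound added to 5 cm standing water at 1000 g/ha a.i. when weeds reached one-leaf stage in clay loam pots in greenhouse. Growth inhibition rated 21 days later versus untreated control on a 0 (0%) to 5 (100%) scale.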

[2] = system: Lindernia procumbens; assay: as above; details: one-leaf stage, 1000 g/ha as active ingredient, examined after 21 days
Outline: as §1

[3] = system: Scirpus juncoides; assay: as above; details: one-leaf stage, 1000 g/ha as active ingredient, examined after 21 days
Outline: as §1

[4] = system: Lindernia procumbens; assay: Herbicidal efficacy on paddy field weeds of pre-emergence stage (Pre), Test Example 1; details: 1000 g/ha as active ingredient, examined after 21 days
Outline: (§2)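 Pre-emergence paddy test: 1000 g/ha active ingredient, formulated and water-diluted, dropped onto 5 cm floodwater one day after sowing both weeds in clay loam. After 21 days in greenhouse, inhibition relative to untreated control rated on 0 (0%) to 5 (100%) scale.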

[5] = system: Scirpus juncoides; assay: as above; details: 1000 g/ha as active ingredient, examined after 21 days
Outline: as §2

| Structure (SMILES) | Echinochloa crus-galli post (herbicidal effect) [1] | Lindernia procumbens post (herbicidal effect) [2] | Scirpus juncoides post (herbicidal effect) [3] | Lindernia procumbens pre (herbicidal effect) [4] | Scirpus juncoides pre (herbicidal effect) [5] |
| --- | --- | --- | --- | --- | --- |
| CCOC(=O)N(c1ccccc1CN1CCC(C)(C)OC1=O)S(=O)(=O)C(F)(F)F [Compound 1-47] | 4 (90%-99% herbicidal effect, phytotoxicity) | 4 (90%-99% herbicidal effect, phytotoxicity) | 4 (90%-99% herbicidal effect, phytotoxicity) | 4 (90%-99% herbicidal effect, phytotoxicity) | 4 (90%-99% herbicidal effect, phytotoxicity) |
| CC(C)COC(=O)N(c1ccccc1CN1CCC(C)(C)OC1=O)S(=O)(=O)C(F)(F)F [Compound 1-50] | 4 (90%-99% herbicidal effect, phytotoxicity) | 4 (90%-99% herbicidal effect, phytotoxicity) | 4 (90%-99% herbicidal effect, phytotoxicity) | 4 (90%-99% herbicidal effect, phytotoxicity) | 4 (90%-99% herbicidal effect, phytotoxicity) |
| CC(C)(C)COC(=O)N(c1ccccc1CN1CCC(C)(C)OC1=O)S(=O)(=O)C(F)(F)F [Compound 1-51] | 4 (90%-99% herbicidal effect, phytotoxicity) | 4 (90%-99% herbicidal effect, phytotoxicity) | 4 (90%-99% herbicidal effect, phytotoxicity) | 4 (90%-99% herbicidal effect, phytotoxicity) | 4 (90%-99% herbicidal effect, phytotoxicity) |
| CCCCCOC(=O)N(c1ccccc1CN1CCC(C)(C)OC1=O)S(=O)(=O)C(F)(F)F [Compound 1-52] | 4 (90%-99% herbicidal effect, phytotoxicity) | 4 (90%-99% herbicidal effect, phytotoxicity) | 4 (90%-99% herbicidal effect, phytotoxicity) | 4 (90%-99% herbicidal effect, phytotoxicity) | 4 (90%-99% herbicidal effect, phytotoxicity) |
| COCN(c1ccccc1CN1CCC(C)(C)OC1=O)S(=O)(=O)C(F)(F)F [Compound 1-55] | 4 (90%-99% herbicidal effect, phytotoxicity) | 4 (90%-99% herbicidal effect, phytotoxicity) | 4 (90%-99% herbicidal effect, phytotoxicity) | 4 (90%-99% herbicidal effect, phytotoxicity) | 4 (90%-99% herbicidal effect, phytotoxicity) |
| CC1(C)CCN(Cc2ccccc2NS(=O)(=O)C(F)(F)F)C(=S)O1 [Compound 1-58] | 4 (90%-99% herbicidal effect, phytotoxicity) | 4 (90%-99% herbicidal effect, phytotoxicity) | 4 (90%-99% herbicidal effect, phytotoxicity) | 4 (90%-99% herbicidal effect, phytotoxicity) | 4 (90%-99% herbicidal effect, phytotoxicity) |
| CC(C)COC(=O)N(c1ccccc1CN1CCC(C)(C)OC1=S)S(=O)(=O)C(F)(F)F [Compound 1-63] | 4 (90%-99% herbicidal effect, phytotoxicity) | 4 (90%-99% herbicidal effect, phytotoxicity) | 4 (90%-99% herbicidal effect, phytotoxicity) | 4 (90%-99% herbicidal effect, phytotoxicity) | 4 (90%-99% herbicidal effect, phytotoxicity) |
| CC(C)(C)COC(=O)N(c1ccccc1CN1CCC(C)(C)OC1=S)S(=O)(=O)C(F)(F)F [Compound 1-64] | 4 (90%-99% herbicidal effect, phytotoxicity) | 4 (90%-99% herbicidal effect, phytotoxicity) | 4 (90%-99% herbicidal effect, phytotoxicity) | 4 (90%-99% herbicidal effect, phytotoxicity) | 4 (90%-99% herbicidal effect, phytotoxicity) |
| CCC1(C)CCN(Cc2ccccc2NS(=O)(=O)C(F)(F)F)C(=O)O1 (centres unmarked) [Compound 1-69] | 4 (90%-99% herbicidal effect, phytotoxicity) | 4 (90%-99% herbicidal effect, phytotoxicity) | 4 (90%-99% herbicidal effect, phytotoxicity) | 4 (90%-99% herbicidal effect, phytotoxicity) | 4 (90%-99% herbicidal effect, phytotoxicity) |
| CCOC(=O)N(c1ccccc1CN1CCC(C)(CC)OC1=O)S(=O)(=O)C(F)(F)F (centres unmarked) [Compound 1-71] | 4 (90%-99% herbicidal effect, phytotoxicity) | 4 (90%-99% herbicidal effect, phytotoxicity) | 4 (90%-99% herbicidal effect, phytotoxicity) | 4 (90%-99% herbicidal effect, phytotoxicity) | 4 (90%-99% herbicidal effect, phytotoxicity) |
| CCC1(C)CCN(Cc2ccccc2N(C(=O)OCC(C)C)S(=O)(=O)C(F)(F)F)C(=O)O1 (centres unmarked) [Compound 1-74] | 4 (90%-99% herbicidal effect, phytotoxicity) | 4 (90%-99% herbicidal effect, phytotoxicity) | 4 (90%-99% herbicidal effect, phytotoxicity) | 4 (90%-99% herbicidal effect, phytotoxicity) | 4 (90%-99% herbicidal effect, phytotoxicity) |
| CCC1(C)CCN(Cc2ccccc2N(C(=O)OCC(C)(C)C)S(=O)(=O)C(F)(F)F)C(=O)O1 (centres unmarked) [Compound 1-75] | 4 (90%-99% herbicidal effect, phytotoxicity) | 4 (90%-99% herbicidal effect, phytotoxicity) | 4 (90%-99% herbicidal effect, phytotoxicity) | 4 (90%-99% herbicidal effect, phytotoxicity) | 4 (90%-99% herbicidal effect, phytotoxicity) |
| COC(=O)N(c1ccccc1CN1CCC(C)(C(F)(F)F)OC1=O)S(=O)(=O)C(F)(F)F (centres unmarked) [Compound 1-81] | 4 (90%-99% herbicidal effect, phytotoxicity) | 5 (100% herbicidal effect, phytotoxicity) | 4 (90%-99% herbicidal effect, phytotoxicity) | 5 (100% herbicidal effect, phytotoxicity) | 4 (90%-99% herbicidal effect, phytotoxicity) |
| CCOC(=O)N(c1ccccc1CN1CCC(C)(C(F)(F)F)OC1=O)S(=O)(=O)C(F)(F)F (centres unmarked) [Compound 1-82] | 4 (90%-99% herbicidal effect, phytotoxicity) | 5 (100% herbicidal effect, phytotoxicity) | 4 (90%-99% herbicidal effect, phytotoxicity) | 5 (100% herbicidal effect, phytotoxicity) | 5 (100% herbicidal effect, phytotoxicity) |
| CC(C)(C)COC(=O)N(c1ccccc1CN1CCC(C)(C(F)(F)F)OC1=O)S(=O)(=O)C(F)(F)F (centres unmarked) [Compound 1-86] | 4 (90%-99% herbicidal effect, phytotoxicity) | 4 (90%-99% herbicidal effect, phytotoxicity) | 4 (90%-99% herbicidal effect, phytotoxicity) | 4 (90%-99% herbicidal effect, phytotoxicity) | 4 (90%-99% herbicidal effect, phytotoxicity) |
| CCC1(C(F)(F)F)CCN(Cc2ccccc2NS(=O)(=O)C(F)(F)F)C(=O)O1 (centres unmarked) [Compound 1-91] | 4 (90%-99% herbicidal effect, phytotoxicity) | 5 (100% herbicidal effect, phytotoxicity) | 4 (90%-99% herbicidal effect, phytotoxicity) | 5 (100% herbicidal effect, phytotoxicity) | 4 (90%-99% herbicidal effect, phytotoxicity) |
| CCC1(C(F)(F)F)CCN(Cc2ccccc2N(C(=O)OC)S(=O)(=O)C(F)(F)F)C(=O)O1 (centres unmarked) [Compound 1-92] | 4 (90%-99% herbicidal effect, phytotoxicity) | 5 (100% herbicidal effect, phytotoxicity) | 4 (90%-99% herbicidal effect, phytotoxicity) | 5 (100% herbicidal effect, phytotoxicity) | 4 (90%-99% herbicidal effect, phytotoxicity) |
| CCOC(=O)N(c1ccccc1CN1CCC(CC)(C(F)(F)F)OC1=O)S(=O)(=O)C(F)(F)F (centres unmarked) [Compound 1-93] | 4 (90%-99% herbicidal effect, phytotoxicity) | 5 (100% herbicidal effect, phytotoxicity) | 4 (90%-99% herbicidal effect, phytotoxicity) | 5 (100% herbicidal effect, phytotoxicity) | 5 (100% herbicidal effect, phytotoxicity) |
| CCC1(C(F)(F)F)CCN(Cc2ccccc2N(C(=O)OCC(C)C)S(=O)(=O)C(F)(F)F)C(=O)O1 (centres unmarked) [Compound 1-96] | 4 (90%-99% herbicidal effect, phytotoxicity) | 5 (100% herbicidal effect, phytotoxicity) | 4 (90%-99% herbicidal effect, phytotoxicity) | 5 (100% herbicidal effect, phytotoxicity) | 4 (90%-99% herbicidal effect, phytotoxicity) |
